In patent US20260297080A1, “BICYCLIC COMPOUNDS AS CDK INHIBITORS” (BeOne Medicines I GmbH, priority 2022, published 2026):

How the values were obtained:
CDK1/Cyclin B1 = CDK1/Cyclin B1 (Homo sapiens, UniProt P06493); experiment: CDK1/Cyclin B1 Biochemical Assay (TR-FRET), 0.015 mM ATP; details: 0.15 μM Rb (Ser780)-biotin substrate, pH7.0, 60 min preincubation, 120 min reaction, room temperature
How it was run: (§1)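 Inhibitor concentrations up to 10 μM were preincubated with each cyclin–kinase complex for 60 minutes before ATP and biotinylated Rb (Ser780) substrate (0.15 μM) were added. After 120 minutes at room temperature, phosphorylation was quantified by HTRF and IC50 values were fitted with a four-parameter logistic equation.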

CDK2/Cyclin E1 = CDK2/Cyclin E1 (Homo sapiens, UniProt P24941); experiment: CDK2/Cyclin E1 Biochemical Assay (TR-FRET), 0.060 mM ATP; details: 0.15 μM Rb (Ser780)-biotin substrate, pH7.0, 60 min preincubation, 120 min reaction, room temperature
How it was run: as §1

Sequence of CDK1/Cyclin B1 (P06493 whole entry): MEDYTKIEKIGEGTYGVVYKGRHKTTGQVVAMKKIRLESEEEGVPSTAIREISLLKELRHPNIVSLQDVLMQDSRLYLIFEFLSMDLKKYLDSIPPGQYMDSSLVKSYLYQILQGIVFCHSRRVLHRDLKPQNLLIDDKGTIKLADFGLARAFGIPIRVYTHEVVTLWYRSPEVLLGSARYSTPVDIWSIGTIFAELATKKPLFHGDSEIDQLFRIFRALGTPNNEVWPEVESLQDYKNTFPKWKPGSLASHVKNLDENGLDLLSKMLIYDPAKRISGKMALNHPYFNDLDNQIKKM
Sequence of CDK1/Cyclin B1 (P14635 whole entry partner): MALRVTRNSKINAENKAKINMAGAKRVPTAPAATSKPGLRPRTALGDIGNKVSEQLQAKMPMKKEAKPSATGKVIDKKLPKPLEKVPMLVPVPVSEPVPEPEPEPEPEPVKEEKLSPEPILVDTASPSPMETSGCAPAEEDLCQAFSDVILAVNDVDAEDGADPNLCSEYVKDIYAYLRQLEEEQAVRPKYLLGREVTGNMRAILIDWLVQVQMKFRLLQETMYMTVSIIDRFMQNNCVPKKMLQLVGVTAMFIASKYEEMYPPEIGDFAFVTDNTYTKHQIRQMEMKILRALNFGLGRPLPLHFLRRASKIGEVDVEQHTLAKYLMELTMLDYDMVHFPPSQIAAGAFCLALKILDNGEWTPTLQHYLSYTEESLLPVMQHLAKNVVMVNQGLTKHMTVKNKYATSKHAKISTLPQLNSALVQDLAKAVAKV

**Q.** CC(C)NC(=O)O[C@H]1CC[C@@H](c2cc(Nc3ccc4c(c3)CS(=O)(=O)N4CCCO)n[nH]2)C1 (relative stereo) [Example 215, cis-3-(3-((1-(3-hydroxypropyl)-2,2-dioxido-1,3-dihydrobenzo[c]isothiazol-5-yl)amino)-1H-pyrazol-5-yl)cyclopentyl isopropylcarbamate] was tested. Which IC50 (CDK1/Cyclin B1) did it give?
**A.** Its IC50 is 0.03 µM.

**Q.** What about the IC50 (CDK2/Cyclin E1) of the same compound?
**A.** The IC50 was 0.0031 µM.

**Q.** Which results are given for CC(C)NC(=O)O[C@H]1CC[C@@H](c2cc(Nc3ccc4c(c3F)CN(CCC3CCOCC3)S4(=O)=O)n[nH]2)C1 (relative stereo) [Example 114, cis-3-(3-((4-fluoro-1,1-dioxido-2-(2-(tetrahydro-2H-pyran-4-yl)ethyl)-2,3-dihydrobenzo[d]isothiazol-5-yl)amino)-1H-pyrazol-5-yl)cyclopentyl isopropylcarbamate]?
**A.** IC50 (CDK1/Cyclin B1): 0.596 µM; IC50 (CDK2/Cyclin E1): 0.0096 µM

**Q.** Which results are given for CN1c2ccc(Nc3cc([C@@H]4CC[C@H](OC(=O)NC(C)(C)CO)C4)[nH]n3)cc2CS1(=O)=O (single isomer, unassigned) [Example 325a, cis-3-(3-((1-methyl-2,2-dioxido-1,3-dihydrobenzo[c]isothiazol-5-yl)amino)-1H-pyrazol-5-yl)cyclopentyl(1-hydroxy-2-methylpropan-2-yl)carbamate]?
**A.** IC50 (CDK1/Cyclin B1): 0.023 µM; IC50 (CDK2/Cyclin E1): 0.0016 µM

**Q.** What does the source list for O=C(NCCC(F)(F)F)O[C@H]1CC[C@@H](c2cc(Nc3cc4c(cc3F)S(=O)(=O)NC4)n[nH]2)C1 (single isomer, unassigned) [Example 419b]?
**A.** IC50 (CDK1/Cyclin B1): 0.078 µM; IC50 (CDK2/Cyclin E1): 0.0018 µM

**Q.** Which results are given for CC(C)NC(=O)O[C@H]1CC[C@@H](c2cc(Nc3cc(F)c4c(c3)CS(=O)(=O)N4CC(F)(F)F)n[nH]2)C1 (relative stereo) [Example 281, cis-3-(3-((7-fluoro-2,2-dioxido-1-(2,2,2-trifluoroethyl)-1,3-dihydrobenzo[c]isothiazol-5-yl)amino)-1H-pyrazol-5-yl)cyclopentyl isopropylcarbamate]?
**A.** IC50 (CDK1/Cyclin B1): 0.131 µM; IC50 (CDK2/Cyclin E1): 0.0081 µM

**Q.** How did the IC50 (CDK1/Cyclin B1) turn out when CC1(NC(=O)O[C@H]2CC[C@@H](c3cc(Nc4ccc5c(c4F)CNS5(=O)=O)n[nH]3)C2)COC1 (single isomer, unassigned) [Example 164b, cis-3-(3-((4-fluoro-1,1-dioxido-2,3-dihydrobenzo[d]isothiazol-5-yl)amino)-1H-pyrazol-5-yl)cyclopentyl(3-methyloxetan-3-yl)carbamate] was run?
**A.** The IC50 was 0.189 µM.

**Q.** And the IC50 (CDK2/Cyclin E1)?
**A.** The IC50 was 0.0084 µM.

**Q.** For C[C@H]1[C@H](O)CN1C(=O)O[C@H]1CC[C@@H](c2cc(Nc3ccc4c(c3F)CN(C)S4(=O)=O)n[nH]2)C1 (relative stereo) [Example 170, cis-3-(3-((4-fluoro-2-methyl-1,1-dioxido-2,3-dihydrobenzo[d]isothiazol-5-yl)amino)-1H-pyrazol-5-yl)cyclopentyl(2S,3R)-3-hydroxy-2-methylazetidine-1-carboxylate], which IC50 (CDK1/Cyclin B1) is on record?
**A.** The IC50 was 0.407 µM.

**Q.** What about the IC50 (CDK2/Cyclin E1) of the same compound?
**A.** Its IC50 is 0.023 µM.

**Q.** How did the IC50 (CDK1/Cyclin B1) turn out when CC[C@H](C)NC(=O)O[C@H]1CC[C@@H](c2cc(Nc3ccc4c(c3F)CN(CCO)S4(=O)=O)n[nH]2)C1 (relative stereo) [Example 127, cis-3-(3-((4-fluoro-2-(2-hydroxyethyl)-1,1-dioxido-2,3-dihydrobenzo[d]isothiazol-5-yl)amino)-1H-pyrazol-5-yl)cyclopentyl((S)-sec-butyl)carbamate] was run?
**A.** The IC50 was 0.176 µM.

**Q.** And the IC50 (CDK2/Cyclin E1)?
**A.** Its IC50 is 0.0019 µM.

**Q.** How did the IC50 (CDK1/Cyclin B1) turn out when CN1c2ccc(Nc3cc([C@@H]4CC[C@H](OC(=O)NC5CCC56CC6)C4)[nH]n3)cc2CS1(=O)=O (relative stereo) [Example 196, cis-3-(3-((1-methyl-2,2-dioxido-1,3-dihydrobenzo[c]isothiazol-5-yl)amino)-1H-pyrazol-5-yl)cyclopentyl spiro[2.3]hexan-4-ylcarbamate] was run?
**A.** The IC50 was 0.047 µM.

**Q.** What about the IC50 (CDK2/Cyclin E1) of the same compound?
**A.** Its IC50 is 0.0043 µM.

**Q.** With CC(CC(F)(F)F)NC(=O)O[C@H]1CC[C@@H](c2cc(Nc3ccc4c(c3)CS(=O)(=O)N4C)n[nH]2)C1 (relative stereo) [Example 229, cis-3-(3-((1-methyl-2,2-dioxido-1,3-dihydrobenzo[c]isothiazol-5-yl)amino)-1H-pyrazol-5-yl)cyclopentyl(4,4,4-trifluorobutan-2-yl)carbamate] as the compound, how does the IC50 (CDK1/Cyclin B1) read?
**A.** The IC50 was 0.03 µM.

**Q.** And the IC50 (CDK2/Cyclin E1)?
**A.** Its IC50 is 0.0064 µM.

**Q.** With CCCNC(=O)O[C@H]1CC[C@@H](c2cc(Nc3cc4c(cc3F)S(=O)(=O)NC4)n[nH]2)C1 (single isomer, unassigned) [Example 42a, cis-3-(3-((6-fluoro-1,1-dioxido-2,3-dihydrobenzo[d]isothiazol-5-yl)amino)-1H-pyrazol-5-yl)cyclopentyl propylcarbamate] as the compound, how does the IC50 (CDK1/Cyclin B1) read?
**A.** The IC50 was 0.891 µM.

**Q.** What about the IC50 (CDK2/Cyclin E1) of the same compound?
**A.** Its IC50 is 0.014 µM.

**Q.** CC[C@H](C)NC(=O)O[C@H]1CC[C@@H](c2cc(Nc3ccc4c(c3F)CS(=O)(=O)N4CC(F)(F)F)n[nH]2)C1 (single isomer, unassigned) [Example 265a] was tested. Which IC50 (CDK1/Cyclin B1) did it give?
**A.** The IC50 was 0.041 µM.

**Q.** And the IC50 (CDK2/Cyclin E1)?
**A.** Its IC50 is 0.0016 µM.

**Q.** With CC[C@H](C)NC(=O)O[C@H]1CC[C@@H](c2cc(Nc3ccc4c(c3F)CN(C3CC3)S4(=O)=O)n[nH]2)C1 (single isomer, unassigned) [Example 117a] as the compound, how does the IC50 (CDK1/Cyclin B1) read?
**A.** Its IC50 is 0.326 µM.

**Q.** What about the IC50 (CDK2/Cyclin E1) of the same compound?
**A.** The IC50 was 0.0025 µM.

**Q.** Which results are given for CC(=O)N1CC(N2Cc3c(ccc(Nc4cc([C@@H]5CC[C@H](OC(=O)NC(C)C)C5)[nH]n4)c3F)S2(=O)=O)C1 (relative stereo) [Example 90, cis-3-(3-((2-(1-acetylazetidin-3-yl)-4-fluoro-1,1-dioxido-2,3-dihydrobenzo[d]isothiazol-5-yl)amino)-1H-pyrazol-5-yl)cyclopentyl isopropylcarbamate]?
**A.** IC50 (CDK1/Cyclin B1): 0.762 µM; IC50 (CDK2/Cyclin E1): 0.02 µM

**Q.** O=C(NC1CCC12CC2)O[C@H]1CC[C@@H](c2cc(Nc3ccc4c(c3F)CNS4(=O)=O)n[nH]2)C1 (relative stereo) [Example 152, cis-3-(3-((4-fluoro-1,1-dioxido-2,3-dihydrobenzo[d]isothiazol-5-yl)amino)-1H-pyrazol-5-yl)cyclopentyl spiro[2.3]hexan-4-ylcarbamate] was tested. Which IC50 (CDK1/Cyclin B1) did it give?
**A.** The IC50 was 0.324 µM.

**Q.** And the IC50 (CDK2/Cyclin E1)?
**A.** The IC50 was 0.0036 µM.

**Q.** For CC(C)NC(=O)O[C@H]1CC[C@@H](c2cc(Nc3ccc4c(c3F)CN(C3CN(C(c5ccccc5)c5ccccc5)C3)S4(=O)=O)n[nH]2)C1 (relative stereo) [Example 94, cis-3-(3-((2-(1-benzhydrylazetidin-3-yl)-4-fluoro-1,1-dioxido-2,3-dihydrobenzo[d]isothiazol-5-yl)amino)-1H-pyrazol-5-yl)cyclopentyl isopropylcarbamate], which IC50 (CDK1/Cyclin B1) is on record?
**A.** Its IC50 is greater than 10 µM.

**Q.** What about the IC50 (CDK2/Cyclin E1) of the same compound?
**A.** The IC50 was 0.332 µM.

**Q.** Which results are given for CC(C)NC(=O)O[C@H]1CC[C@@H](c2cc(Nc3cc4c(cc3F)N(C3CC3)S(=O)(=O)C4)n[nH]2)C1 (relative stereo) [Example 302, cis-3-(3-((1-cyclopropyl-6-fluoro-2,2-dioxido-1,3-dihydrobenzo[c]isothiazol-5-yl)amino)-1H-pyrazol-5-yl)cyclopentyl isopropylcarbamate]?
**A.** IC50 (CDK1/Cyclin B1): 0.686 µM; IC50 (CDK2/Cyclin E1): 0.021 µM

**Q.** Which IC50 (CDK1/Cyclin B1) does the source give for [2H]C([2H])([2H])N1Cc2c(ccc(Nc3cc([C@@H]4CC[C@H](OC(=O)NC5(C)CC5)C4)[nH]n3)c2F)S1(=O)=O (single isomer, unassigned) [Example 132b, cis-3-(3-((4-fluoro-2-(methyl-d3)-1,1-dioxido-2,3-dihydrobenzo[d]isothiazol-5-yl)amino)-1H-pyrazol-5-yl)cyclopentyl(1-methylcyclopropyl)carbamate] here?
**A.** The IC50 was 0.065 µM.

**Q.** And the IC50 (CDK2/Cyclin E1)?
**A.** The IC50 was 0.0019 µM.

**Q.** Which results are given for CC(C)NC(=O)O[C@H]1CC[C@@H](c2cc(Nc3ccc4c(c3)C(C)S(=O)(=O)N4)n[nH]2)C1 (single isomer, unassigned) [Example 384d, cis-3-(3-((3-methyl-2,2-dioxido-1,3-dihydrobenzo[c]isothiazol-5-yl)amino)-1H-pyrazol-5-yl)cyclopentyl isopropylcarbamate]?
**A.** IC50 (CDK1/Cyclin B1): 0.057 µM; IC50 (CDK2/Cyclin E1): 0.0018 µM

**Q.** CC(C)NC(=O)O[C@H]1CC[C@@H](c2cc(Nc3ccc4c(c3)C(C)(C)S(=O)(=O)N4)n[nH]2)C1 (relative stereo) [Example 194, cis-3-(3-((3,3-dimethyl-2,2-dioxido-1,3-dihydrobenzo[c]isothiazol-5-yl)amino)-1H-pyrazol-5-yl)cyclopentyl isopropylcarbamate] was tested. Which IC50 (CDK1/Cyclin B1) did it give?
**A.** The IC50 was 0.086 µM.

**Q.** What about the IC50 (CDK2/Cyclin E1) of the same compound?
**A.** Its IC50 is 0.0037 µM.

**Q.** With C[C@H]1[C@H](O)CN1C(=O)O[C@H]1CC[C@@H](c2cc(Nc3ccc4c(c3F)CS(=O)(=O)N4C)n[nH]2)C1 (relative stereo) [Example 355, cis-3-(3-((4-fluoro-1-methyl-2,2-dioxido-1,3-dihydrobenzo[c]isothiazol-5-yl)amino)-1H-pyrazol-5-yl)cyclopentyl(2S,3R)-3-hydroxy-2-methylazetidine-1-carboxylate] as the compound, how does the IC50 (CDK1/Cyclin B1) read?
**A.** The IC50 was 0.361 µM.

**Q.** And the IC50 (CDK2/Cyclin E1)?
**A.** The IC50 was 0.019 µM.

**Q.** Which IC50 (CDK1/Cyclin B1) does the source give for CC(C)NC(=O)O[C@H]1CC[C@@H](c2cc(Nc3ccc4c(c3)S(=O)(=O)NC4)n[nH]2)C1 (relative stereo) [Example 3, cis-3-(3-((1,1-dioxido-2,3-dihydrobenzo[d]isothiazol-6-yl)amino)-1H-pyrazol-5-yl)cyclopentyl isopropylcarbamate] here?
**A.** Its IC50 is 0.029 µM.

**Q.** And the IC50 (CDK2/Cyclin E1)?
**A.** The IC50 was 0.0012 µM.

**Q.** Which IC50 (CDK1/Cyclin B1) does the source give for O=C(NC1CCCC1)O[C@H]1CC[C@@H](c2cc(Nc3ccc4c(c3)CS(=O)(=O)N4)n[nH]2)C1 (single isomer, unassigned) [Example 381a, cis-3-(3-((2,2-dioxido-1,3-dihydrobenzo[c]isothiazol-5-yl)amino)-1H-pyrazol-5-yl)cyclopentyl cyclopentylcarbamate] here?
**A.** The IC50 was 0.045 µM.

**Q.** And the IC50 (CDK2/Cyclin E1)?
**A.** The IC50 was 0.0012 µM.

**Q.** CC1(NC(=O)O[C@H]2CC[C@@H](c3cc(Nc4ccc5c(c4F)CN(C4CC4)S5(=O)=O)n[nH]3)C2)COC1 (relative stereo) [Example 372, cis-3-(3-((2-cyclopropyl-4-fluoro-1,1-dioxido-2,3-dihydrobenzo[d]isothiazol-5-yl)amino)-1H-pyrazol-5-yl)cyclopentyl(3-methyloxetan-3-yl)carbamate] was tested. Which IC50 (CDK1/Cyclin B1) did it give?
**A.** The IC50 was 0.395 µM.

**Q.** And the IC50 (CDK2/Cyclin E1)?
**A.** The IC50 was 0.0068 µM.
